Source: the NIST ThermoML archive (doi:10.1021/je7004374)

Columns and labels:
[1] = Liquid; for speed of sound: Sing-around technique in a fixed-path interferometer
[2] = refractive index (Na D-line) (dimensionless); settings: 298.15 K; 101.33 kPa; Liquid; Standard Abbe refractometry

OCCCO [propan-1,3-diol]
[1]
Settings | mass density [kg/m3] | speed of sound [m/s]
283.16 K, 101.33 kPa | 1059.09 | –
288.15 K, 101.33 kPa | 1056 | –
292.88 K, 30390 kPa | – | 1721.7
292.89 K, 15200 kPa | – | 1681.2
292.89 K, 45590 kPa | – | 1760.3
292.89 K, 60790 kPa | – | 1797
292.89 K, 75990 kPa | – | 1832.2
292.89 K, 91180 kPa | – | 1865.9
292.89 K, 101320 kPa | – | 1887.8
292.91 K, 100 kPa | – | 1636.5
293.15 K, 100 kPa | 1052.91 | –
293.15 K, 101.33 kPa | – | 1636
293.15 K, 10000 kPa | 1057 | –
293.15 K, 20000 kPa | 1060.96 | –
293.15 K, 30000 kPa | 1064.8 | –
293.15 K, 40000 kPa | 1068.51 | –
293.15 K, 50000 kPa | 1072.11 | –
293.15 K, 60000 kPa | 1075.61 | –
293.15 K, 70000 kPa | 1079.02 | –
293.15 K, 80000 kPa | 1082.34 | –
293.15 K, 90000 kPa | 1085.57 | –
293.15 K, 100000 kPa | 1088.73 | –
293.16 K, 101.33 kPa | 1052.89 | –
298.15 K, 100 kPa | 1049.81 | –
298.15 K, 101.33 kPa | 1049.78 | 1624.5
298.15 K, 10000 kPa | 1053.95 | –
298.15 K, 20000 kPa | 1057.97 | –
298.15 K, 30000 kPa | 1061.86 | –
298.15 K, 40000 kPa | 1065.62 | –
298.15 K, 50000 kPa | 1069.27 | –
298.15 K, 60000 kPa | 1072.82 | –
298.15 K, 70000 kPa | 1076.26 | –
298.15 K, 80000 kPa | 1079.62 | –
298.15 K, 90000 kPa | 1082.89 | –
298.15 K, 100000 kPa | 1086.09 | –
298.16 K, 75990 kPa | – | 1821.4
298.16 K, 91180 kPa | – | 1855.4
298.16 K, 101320 kPa | – | 1877.2
298.17 K, 100 kPa | – | 1624.5
298.17 K, 15200 kPa | – | 1668.7
298.17 K, 30390 kPa | – | 1709.9
298.17 K, 45590 kPa | – | 1748.8
298.17 K, 60790 kPa | – | 1786
303.14 K, 101320 kPa | – | 1868
303.15 K, 100 kPa | 1046.7 | 1613.2
303.15 K, 101.33 kPa | – | 1613.2
303.15 K, 10000 kPa | 1050.89 | –
303.15 K, 20000 kPa | 1054.96 | –
303.15 K, 30000 kPa | 1058.9 | –
303.15 K, 40000 kPa | 1062.72 | –
303.15 K, 45590 kPa | – | 1738.6
303.15 K, 50000 kPa | 1066.41 | –
303.15 K, 60000 kPa | 1070 | –
303.15 K, 60790 kPa | – | 1776
303.15 K, 70000 kPa | 1073.49 | –
303.15 K, 75990 kPa | – | 1811.7
303.15 K, 80000 kPa | 1076.89 | –
303.15 K, 90000 kPa | 1080.2 | –
303.15 K, 91180 kPa | – | 1845.8
303.15 K, 100000 kPa | 1083.43 | –
303.16 K, 101.33 kPa | 1046.65 | –
303.16 K, 15200 kPa | – | 1657.6
303.16 K, 30390 kPa | – | 1699
308.13 K, 100 kPa | – | 1601.9
308.15 K, 100 kPa | 1043.56 | –
308.15 K, 101.33 kPa | – | 1601.8
308.15 K, 10000 kPa | 1047.8 | –
308.15 K, 15200 kPa | – | 1646.6
308.15 K, 20000 kPa | 1051.94 | –
308.15 K, 30000 kPa | 1055.93 | –
308.15 K, 30390 kPa | – | 1688.4
308.15 K, 40000 kPa | 1059.79 | –
308.15 K, 45590 kPa | – | 1728.4
308.15 K, 50000 kPa | 1063.54 | –
308.15 K, 60000 kPa | 1067.17 | –
308.15 K, 60790 kPa | – | 1766
308.15 K, 70000 kPa | 1070.71 | –
308.15 K, 75990 kPa | – | 1802
308.15 K, 80000 kPa | 1074.14 | –
308.15 K, 90000 kPa | 1077.49 | –
308.15 K, 91180 kPa | – | 1836.6
308.15 K, 100000 kPa | 1080.76 | –
308.15 K, 101320 kPa | – | 1858.8
308.16 K, 101.33 kPa | 1043.52 | –
313.12 K, 100 kPa | – | 1590.5
313.12 K, 91180 kPa | – | 1827.4
313.12 K, 101320 kPa | – | 1849.7
313.13 K, 30390 kPa | – | 1678
313.13 K, 45590 kPa | – | 1718.2
313.13 K, 60790 kPa | – | 1756.4
313.13 K, 75990 kPa | – | 1792.6
313.14 K, 15200 kPa | – | 1635.8
313.15 K, 100 kPa | 1040.39 | –
313.15 K, 101.33 kPa | 1040.36 | 1590.5
313.15 K, 10000 kPa | 1044.7 | –
313.15 K, 20000 kPa | 1048.89 | –
313.15 K, 30000 kPa | 1052.94 | –
313.15 K, 40000 kPa | 1056.85 | –
313.15 K, 50000 kPa | 1060.65 | –
313.15 K, 60000 kPa | 1064.33 | –
313.15 K, 70000 kPa | 1067.9 | –
313.15 K, 80000 kPa | 1071.38 | –
313.15 K, 90000 kPa | 1074.77 | –
313.15 K, 100000 kPa | 1078.07 | –
318.15 K, 100 kPa | 1037.21 | –
318.15 K, 101.33 kPa | 1037.19 | 1579.2
318.15 K, 10000 kPa | 1041.57 | –
318.15 K, 20000 kPa | 1045.83 | –
318.15 K, 30000 kPa | 1049.93 | –
318.15 K, 40000 kPa | 1053.9 | –
318.15 K, 50000 kPa | 1057.74 | –
318.15 K, 60000 kPa | 1061.47 | –
318.15 K, 70000 kPa | 1065.09 | –
318.15 K, 80000 kPa | 1068.61 | –
318.15 K, 90000 kPa | 1072.03 | –
318.15 K, 100000 kPa | 1075.37 | –
318.3 K, 100 kPa | – | 1578.9
318.31 K, 30390 kPa | – | 1667.3
318.31 K, 45590 kPa | – | 1708
318.31 K, 60790 kPa | – | 1746.3
318.31 K, 75990 kPa | – | 1783.1
318.31 K, 91180 kPa | – | 1818
318.31 K, 101320 kPa | – | 1840.6
318.32 K, 15200 kPa | – | 1624.6
323.15 K, 101.33 kPa | 1034 | –
328.16 K, 101.33 kPa | 1030.79 | –
333.15 K, 101.33 kPa | 1027.56 | –
338.15 K, 101.33 kPa | 1024.3 | –
343.15 K, 101.33 kPa | 1021.01 | –
348.15 K, 101.33 kPa | 1017.69 | –
353.15 K, 101.33 kPa | 1014.34 | –
358.15 K, 101.33 kPa | 1010.96 | –
363.15 K, 101.33 kPa | 1007.54 | –

Settings | refractive index
[2] | 1.438
